The record followed here is US9732046B2, “Substituted 1,2,4-triazines as tubulin inhibitors” (YM Biosciences Australia Pty Ltd., priority 2003, dated 2017).

Usually inhibition stands for the relative decrease from the control value, in per cent.

The subject of test [1] is DU145 (Prostate Cancer). In words: Cellular growth inhibition assay (MTT), DU145. In kind it is cell-based. The conditions noted are these: Homo sapiens, DU-145, Table 1, 40 hr incubation. The procedure, abridged:
(§1)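 Late-log-phase cells (K562 in RPMI, DU145 in DMED, PC3 in F12K; all 10% FBS, Glutamx, plus MEM non-essential amino acids for DU145 and PC3) were plated at 50000–200,000 cell/mL (1.1× final) with compounds added at 10× final. After 40 hr at 37° C, 5% CO2, MTT was added for 6 hours, then SDS/HCl lysis overnight and absorbance read at 590 nm.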

Test [2] concerns PC3 (Prostate Cancer). In words: Cellular growth inhibition assay (MTT), PC3. In kind it is cell-based. The conditions noted are these: Table 1, 40 hr incubation. A digest of the protocol:
as §1

The subject of test [3] is K562 (Chronic Myeloid Leukemia). Description: Cellular growth inhibition assay (MTT), K562. The format is cell-based. As to conditions: Homo sapiens, Table 1, 40 hr incubation. The procedure, abridged:
as §1

The target of test [4] is T1, TelJak2 (BaF3 TELJAK cells, TEL/Jak2 fusion) (Homo sapiens, UniProt O60674).
T1 construct: The regions encompassing the kinase domain of JAK2 (nucleotides 2994-3914); expressed in transfected cells; host or cells: BaF3 cells bearing the pTET-off plasmid, transfected with pTELJAK2 (pTRE2 vector); the other entry of the earlier key: ETV6 (P41212, Transcription factor ETV6)
T1 sequence (O60674 with tags, fused parts or gaps): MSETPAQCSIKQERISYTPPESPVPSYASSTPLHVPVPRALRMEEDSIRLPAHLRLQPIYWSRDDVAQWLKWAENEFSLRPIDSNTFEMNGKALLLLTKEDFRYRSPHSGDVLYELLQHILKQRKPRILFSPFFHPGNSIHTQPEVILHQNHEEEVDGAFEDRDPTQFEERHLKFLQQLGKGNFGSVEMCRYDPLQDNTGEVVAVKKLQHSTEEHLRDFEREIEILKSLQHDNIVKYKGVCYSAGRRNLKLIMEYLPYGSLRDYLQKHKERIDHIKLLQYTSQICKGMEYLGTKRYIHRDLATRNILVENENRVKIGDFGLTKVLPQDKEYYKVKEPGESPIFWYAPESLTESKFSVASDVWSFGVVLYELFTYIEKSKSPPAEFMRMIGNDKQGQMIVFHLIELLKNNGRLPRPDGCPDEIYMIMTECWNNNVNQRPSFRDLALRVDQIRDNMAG
In words: Cellular growth inhibition assay (MTT), BaF3 TEL:JAK2 cell line. The format is cell-based. As to conditions: Table 1, 40 hr incubation.

Test [5] addresses T2, TelJak3 (BaF3 TELJAK cells, TEL/JAK3 fusion) (Homo sapiens, UniProt P52333).
T2 construct: For JAK3 Sa1 I/Not I cleaved kinase domain PCR product was ligated with BamH I/Sa1 I cleaved TELproduct; expressed in transfected cells; host or cells: BaF3 cells bearing the pTET-off plasmid, transfected with pTELJAK3 (pTRE2 vector); the other entry of the earlier key: ETV6 (P41212, Transcription factor ETV6)
In words: Cellular growth inhibition assay (MTT), BaF3 TEL:JAK3 cell line. In kind it is cell-based. As to conditions: Table 1, 40 hr incubation.

Test [6] has as its system Tubulin (microtubule protein). In words: Tubulin assay (turbidometric assay of microtubule assembly). The conditions noted are these: Table 1; 50 μM; absorbance at 340 nm, 37° C. In kind it is biochemical. As to the method: Turbidometric assays of microtubule assembly were performed by incubating microtubule protein in cuvettes at 37° C. in a thermostatically controlled spectrophotometer measuring the change in absorbance at 340 nm over time. The microtubule protein was incubated with the each test compound at 0° C. and polymerisation was initiated by addition of 1 mM GTP, prior to heating to 37° C.

T2 sequence (P52333 with tags, fused parts or gaps): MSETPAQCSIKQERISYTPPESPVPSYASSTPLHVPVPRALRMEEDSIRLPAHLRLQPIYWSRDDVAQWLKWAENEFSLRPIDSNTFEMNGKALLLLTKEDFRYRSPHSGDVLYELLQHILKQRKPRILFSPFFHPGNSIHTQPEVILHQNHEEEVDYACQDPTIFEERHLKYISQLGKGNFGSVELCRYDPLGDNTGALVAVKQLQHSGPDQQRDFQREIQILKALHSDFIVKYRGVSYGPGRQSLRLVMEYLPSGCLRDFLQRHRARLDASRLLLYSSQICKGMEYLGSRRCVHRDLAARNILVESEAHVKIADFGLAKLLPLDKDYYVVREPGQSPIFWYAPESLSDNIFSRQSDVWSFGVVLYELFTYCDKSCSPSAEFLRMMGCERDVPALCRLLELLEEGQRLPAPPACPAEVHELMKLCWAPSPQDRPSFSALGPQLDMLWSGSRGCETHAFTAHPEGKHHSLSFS

With `CCC[C@H](Nc1cncc(-c2ccc(NC(=O)NCC)c(OC)c2)n1)c1ccccc1`, the inhibition at 20 µM in test [1], in test [2], in test [3], in test [4] and in test [5] was above 50% throughout. The “Tubulin inhibition of tubulin polymerisation” value (“Tubulin inhibition” below) in test [6] is reported as “+ (compounds which inhibited tubulin polymerisation by greater than 50% at 50 μM)”.
Turning to `CCCC(Nc1cncc(-c2ccc(NC(=O)NCC)c(OC)c2)n1)c1cccnc1` (stereo not drawn), the inhibition at 20 µM in test [1], in test [2], in test [3], in test [4] and in test [5] was above 50% throughout. Also, the “Tubulin inhibition” value in test [6] is “+ (compounds which inhibited tubulin polymerisation by greater than 50% at 50 μM)”.
With `CCCC(Nc1cncc(-c2ccc(OCCCCO)c(OC)c2)n1)c1ccccc1` (stereo not drawn), the inhibition at 20 µM in test [1], in test [2], in test [3], in test [4] and in test [5] was above 50% each time. Moreover, the “Tubulin inhibition” value in test [6] is “+ (compounds which inhibited tubulin polymerisation by greater than 50% at 50 μM)”.
As to `CCCC(Nc1cncc(-c2ccc(CN)cc2)n1)c1ccccc1` (stereo not drawn), the inhibition at 20 µM in test [1], in test [2], in test [3], in test [4] and in test [5] was above 50% each time. Moreover, in test [6], the “Tubulin inhibition” value is listed as “+ (compounds which inhibited tubulin polymerisation by greater than 50% at 50 μM)”.
In the case of `CCCC(Nc1cncc(-c2ccc(OCCCN3CCCC3)c(OC)c2)n1)c1ccccc1` (stereo not drawn), the inhibition at 20 µM in test [1], in test [2], in test [3], in test [4] and in test [5] was above 50% each time. The “Tubulin inhibition” value in test [6] is “+ (compounds which inhibited tubulin polymerisation by greater than 50% at 50 μM)”.
For the molecule `CCCC(Nc1cncc(-c2ccc(OCCCN(CC)CC)c(OC)c2)n1)c1ccccc1` (stereo not drawn), the inhibition at 20 µM in test [1], in test [2], in test [3], in test [4] and in test [5] was above 50% in each case. Moreover, in test [6], the “Tubulin inhibition” value was “+ (compounds which inhibited tubulin polymerisation by greater than 50% at 50 μM)”.
As for `CCCC(Nc1cncc(-c2ccc(OCCCN3CCN(C)CC3)c(OC)c2)n1)c1ccccc1` (stereo not drawn), the inhibition at 20 µM in test [1], in test [2], in test [3], in test [4] and in test [5] was above 50% throughout. The “Tubulin inhibition” value in test [6] is recorded as “+ (compounds which inhibited tubulin polymerisation by greater than 50% at 50 μM)”.
In the case of `CCCC(Nc1cncc(-c2ccc(OCCCn3ccnc3)c(OC)c2)n1)c1ccccc1` (stereo not drawn), the inhibition at 20 µM in test [1], in test [2], in test [3], in test [4] and in test [5] was above 50% each time. The “Tubulin inhibition” value in test [6] is given as “+ (compounds which inhibited tubulin polymerisation by greater than 50% at 50 μM)”.
Consider `CCCC(Nc1cncc(-c2ccc(CNC(=O)C3CCCNC3)cc2)n1)c1ccccc1` (stereo not drawn), for which the inhibition at 20 µM in test [1], in test [2], in test [3], in test [4] and in test [5] was above 50% each time. The “Tubulin inhibition” value in test [6] is given as “+ (compounds which inhibited tubulin polymerisation by greater than 50% at 50 μM)”.
As to `CCCC(Nc1cncc(-c2ccc(OCCCCN3CCCCC3)c(OC)c2)n1)c1ccccc1` (stereo not drawn), the inhibition at 20 µM in test [1], in test [2], in test [3], in test [4] and in test [5] was above 50% in each case. Further, the “Tubulin inhibition” value in test [6] is reported as “+ (compounds which inhibited tubulin polymerisation by greater than 50% at 50 μM)”.
For `CCCC(Nc1cncc(-c2ccc(OCCCCN3CCCC3)c(OC)c2)n1)c1ccccc1` (stereo not drawn), the inhibition at 20 µM in test [1], in test [2], in test [3], in test [4] and in test [5] was above 50% throughout. Moreover, the “Tubulin inhibition” value in test [6] is recorded as “+ (compounds which inhibited tubulin polymerisation by greater than 50% at 50 μM)”.
As for `CCNC(=O)Nc1ccc(-c2cncc(N[C@@H](COC)c3ccccc3)n2)cc1OC`, the inhibition at 20 µM in test [1], in test [2], in test [3], in test [4] and in test [5] was above 50% in each case. Besides, in test [6], the “Tubulin inhibition” value is recorded as “+ (compounds which inhibited tubulin polymerisation by greater than 50% at 50 μM)”.
`CCNC(=O)Nc1ccc(-c2cncc(N[C@@H](COCC)c3ccccc3)n2)cc1OC`: the inhibition at 20 µM in test [1], in test [2], in test [3], in test [4] and in test [5] was above 50% in each case. Further, the “Tubulin inhibition” value in test [6] is recorded as “+ (compounds which inhibited tubulin polymerisation by greater than 50% at 50 μM)”.
With `CCCC(Nc1cc(-c2ccc(O)c(OC)c2)ncn1)c1cccnc1` (stereo not drawn), the inhibition at 20 µM in test [1], in test [2], in test [3], in test [4] and in test [5] was above 50% throughout. The “Tubulin inhibition” value in test [6] was “+ (compounds which inhibited tubulin polymerisation by greater than 50% at 50 μM)”.
`CCC[C@H](Nc1nc(-c2ccc(NC(=O)NCC)c(OC)c2)ncc1C)c1cccnc1`: the inhibition at 20 µM in test [1], in test [2], in test [3], in test [4] and in test [5] was above 50% throughout. Besides, in test [6], the “Tubulin inhibition” value was “+ (compounds which inhibited tubulin polymerisation by greater than 50% at 50 μM)”.
On to `CCC[C@H](Nc1nc(-c2ccc(O)c(OC)c2)ncc1C)c1cccnc1`, for which the inhibition at 20 µM in test [1], in test [2], in test [3], in test [4] and in test [5] was above 50% in each case. Also, in test [6], the “Tubulin inhibition” value is recorded as “+ (compounds which inhibited tubulin polymerisation by greater than 50% at 50 μM)”.
Regarding `CCNC(=O)Nc1ccc(-c2ncc(C)c(N[C@@H](CC)c3cccnc3)n2)cc1OC`, the inhibition at 20 µM in test [1], in test [2], in test [3], in test [4] and in test [5] was above 50% in each case. Also, the “Tubulin inhibition” value in test [6] is on record as “+ (compounds which inhibited tubulin polymerisation by greater than 50% at 50 μM)”.
As to `CC[C@H](Nc1nc(-c2ccc(O)c(OC)c2)ncc1C)c1cccnc1`, the inhibition at 20 µM in test [1], in test [2], in test [3], in test [4] and in test [5] was above 50% each time. Moreover, the “Tubulin inhibition” value in test [6] is “+ (compounds which inhibited tubulin polymerisation by greater than 50% at 50 μM)”.
With `CCC[C@H](Nc1ccnc(-c2ccc(NC(=O)NCC)c(OC)c2)n1)c1cccnc1`, the inhibition at 20 µM in test [1], in test [2], in test [3], in test [4] and in test [5] was above 50% each time. In addition, the “Tubulin inhibition” value in test [6] is given as “+ (compounds which inhibited tubulin polymerisation by greater than 50% at 50 μM)”.
In the case of `COc1cc(-c2cc(N[C@@H](C)c3ccccc3)ncn2)ccc1O`, the inhibition at 20 µM in test [1], in test [2], in test [3], in test [4] and in test [5] was above 50% throughout. The “Tubulin inhibition” value in test [6] is reported as “+ (compounds which inhibited tubulin polymerisation by greater than 50% at 50 μM)”.
